Test system: 855422-203-R-J1-PDC spheroids with HUVEC/MSC, viability
Assay: Anticancer human tumor 855422-203-R-J1-PDC patient-derived bladder carcinoma cell line growth inhibition [PI3K]
Settings: for IC50: curve of first compound; for viability, T/C: stronger effect = lower value
Method in brief: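 High-throughput combination screen: PI3K inhibitors crossed with targeted small molecules on complex spheroids of tumor cells, HUVEC and MSCs at 37 degrees C, 5% CO2. Top concentration was at or near clinical Cmax (otherwise 10 microM), with half-log decrements.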

[1] = second compound 0.0316 µM, first compound 0.0316 µM
[2] = second compound 0.0316 µM, first compound 0.1 µM
[3] = second compound 0.0316 µM, first compound 0.316 µM
[4] = second compound 0.0316 µM, first compound 1 µM
[5] = second compound 0.0316 µM, first compound 3.16 µM
[6] = second compound 0.0316 µM, first compound 10 µM
[7] = second compound 0.1 µM, first compound 0.0316 µM
[8] = second compound 0.1 µM, first compound 0.1 µM
[9] = second compound 0.1 µM, first compound 0.316 µM
[10] = second compound 0.1 µM, first compound 1 µM
[11] = second compound 0.1 µM, first compound 3.16 µM
[12] = second compound 0.1 µM, first compound 10 µM
[13] = second compound 0.316 µM, first compound 0.0316 µM
[14] = second compound 0.316 µM, first compound 0.1 µM
[15] = second compound 0.316 µM, first compound 0.316 µM
[16] = second compound 0.316 µM, first compound 1 µM
[17] = second compound 0.316 µM, first compound 3.16 µM
[18] = second compound 0.316 µM, first compound 10 µM
[19] = second compound 1 µM, first compound 0.0316 µM
[20] = second compound 1 µM, first compound 0.1 µM
[21] = second compound 1 µM, first compound 0.316 µM
[22] = second compound 1 µM, first compound 1 µM
[23] = second compound 1 µM, first compound 3.16 µM
[24] = second compound 1 µM, first compound 10 µM
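Note: agents incubated with spheroids for one week before read-out.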
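Throughout, for viability, T/C: 100% = DMSO vehicle-treated control wells.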

## CC1(C)CCC(CN2CCN(c3ccc(C(=O)NS(=O)(=O)c4ccc(NCC5CCOCC5)c([N+](=O)[O-])c4)c(Oc4cnc5[nH]ccc5c4)c3)CC2)=C(c2ccc(Cl)cc2)C1 + CC(Nc1ccc2c(c1)OCCn1cc(N3C(=O)OCC3C(F)F)nc1-2)C(N)=O
Second compound 0.00316 µM
  IC50: 4.62 µM
Second compound 0.01 µM
  IC50: 4.48 µM
Second compound 0.0316 µM
  IC50: 4.75 µM
Second compound 0.1 µM
  IC50: 4.65 µM
Second compound 0.316 µM
  IC50: 1.93 µM
Second compound 1 µM
  IC50: < 0.0316 µM
Second compound 0.00316 µM, first compound 0.0316 µM
  viability, T/C: 96.5%
Second compound 0.00316 µM, first compound 0.1 µM
  viability, T/C: 88.1%
Second compound 0.00316 µM, first compound 0.316 µM
  viability, T/C: 116%
Second compound 0.00316 µM, first compound 1 µM
  viability, T/C: 89.8%
Second compound 0.00316 µM, first compound 3.16 µM
  viability, T/C: 74%
Second compound 0.00316 µM, first compound 10 µM
  viability, T/C: 1.86%
Second compound 0.01 µM, first compound 0.0316 µM
  viability, T/C: 85.4%
Second compound 0.01 µM, first compound 0.1 µM
  viability, T/C: 77.2%
Second compound 0.01 µM, first compound 0.316 µM
  viability, T/C: 95.1%
Second compound 0.01 µM, first compound 1 µM
  viability, T/C: 96.9%
Second compound 0.01 µM, first compound 3.16 µM
  viability, T/C: 71%
Second compound 0.01 µM, first compound 10 µM
  viability, T/C: 1.5%
[1]
  viability, T/C: 86.2%
[2]
  viability, T/C: 82%
[3]
  viability, T/C: 98.2%
[4]
  viability, T/C: 86%
[5]
  viability, T/C: 75.8%
[6]
  viability, T/C: 2.64%
[7]
  viability, T/C: 68.3%
[8]
  viability, T/C: 70.7%
[9]
  viability, T/C: 84.6%
[10]
  viability, T/C: 72.1%
[11]
  viability, T/C: 74.5%
[12]
  viability, T/C: 2.65%
[13]
  viability, T/C: 55.8%
[14]
  viability, T/C: 55.2%
[15]
  viability, T/C: 53.7%
[16]
  viability, T/C: 54.4%
[17]
  viability, T/C: 46.8%
[18]
  viability, T/C: 1.04%
[19]
  viability, T/C: 36.3%
[20]
  viability, T/C: 35.2%
[21]
  viability, T/C: 36.8%
[22]
  viability, T/C: 34.2%
[23]
  viability, T/C: 35%
[24]
  viability, T/C: 1.55%

## Cn1nccc1Nc1nccc(-c2ccn(C(CO)c3ccc(Cl)c(F)c3)c(=O)c2)n1 (centres undefined) + CC(Nc1ncnc2nc[nH]c12)c1cc2cccc(Cl)c2c(=O)n1-c1ccccc1
Second compound 0.0316 µM
  IC50: 8.7 µM
Second compound 0.1 µM
  IC50: 9.94 µM
Second compound 0.316 µM
  IC50: 8.44 µM
Second compound 1 µM
  IC50: 9 µM
Second compound 3.16 µM
  IC50: 7.46 µM
Second compound 10 µM
  IC50: 4.01 µM
[1]
  viability, T/C: 113%
[2]
  viability, T/C: 94.6%
[3]
  viability, T/C: 116%
[4]
  viability, T/C: 98.2%
[5]
  viability, T/C: 91%
[6]
  viability, T/C: 44.3%
[7]
  viability, T/C: 107%
[8]
  viability, T/C: 98.9%
[9]
  viability, T/C: 109%
[10]
  viability, T/C: 101%
[11]
  viability, T/C: 92.7%
[12]
  viability, T/C: 49.5%
[13]
  viability, T/C: 111%
[14]
  viability, T/C: 98.7%
[15]
  viability, T/C: 105%
[16]
  viability, T/C: 106%
[17]
  viability, T/C: 90%
[18]
  viability, T/C: 43.5%
[19]
  viability, T/C: 107%
[20]
  viability, T/C: 112%
[21]
  viability, T/C: 107%
[22]
  viability, T/C: 103%
[23]
  viability, T/C: 88.1%
[24]
  viability, T/C: 45.7%
Second compound 3.16 µM, first compound 0.0316 µM
  viability, T/C: 100%
Second compound 3.16 µM, first compound 0.1 µM
  viability, T/C: 107%
Second compound 3.16 µM, first compound 0.316 µM
  viability, T/C: 107%
Second compound 3.16 µM, first compound 1 µM
  viability, T/C: 103%
Second compound 3.16 µM, first compound 3.16 µM
  viability, T/C: 84.4%
Second compound 3.16 µM, first compound 10 µM
  viability, T/C: 38.2%
Second compound 10 µM, first compound 0.0316 µM
  viability, T/C: 88.5%
Second compound 10 µM, first compound 0.1 µM
  viability, T/C: 81.3%
Second compound 10 µM, first compound 0.316 µM
  viability, T/C: 87.4%
Second compound 10 µM, first compound 1 µM
  viability, T/C: 80%
Second compound 10 µM, first compound 3.16 µM
  viability, T/C: 56.5%
Second compound 10 µM, first compound 10 µM
  viability, T/C: 25.1%

— PubChem BioAssay AID1963967 (Molecular Pharmacology Branch, DTP, NCI, 2024)
